Laboratory results from patent US20160220709A1, “PHOTOACOUSTIC IMAGING CONTRAST AGENT COMPOSITION” (Agency for Science, Technology and Research, priority 2013, published 2016).

Legend:
[1] = In vitro photoacoustic (PA) signal measurement in polyethylene tubing, PA microscopy at 410 nm
Text: The microscopy system consists of laser pulse generation and delivery, PA signal reception, and image reconstruction and display. Laser pulses, 4 ns wide, were generated at a frequency of 10 Hz by using an optical parametric oscillator (Surlite OPO Plus, Continuum, USA). The laser was pumped by a frequency-tripled Nd:YAG Q-switched laser (Surlite II-10, Continuum, USA). The incident wavelength was set at 410 nm. The custom-made 50-MHz ultrasonic transducer (Acoustic Sensor, Taiwan) has a −6 dB fractional bandwidth of 57.5%, focal length of 9 mm, and a 6 mm active element, offering an axial resolution of 32 μm and a lateral resolution of 61 μm.
Laser energy was delivered using a 1-mm multimodal fiber. The fiber tip was coaxially aligned with a convex lens, an axicon, a plexiglass mirror, and an ultrasonic transducer on an optical bench, forming dark-field illumination that was confocal with the focal point of the ultrasonic transducer. The incident energy density on the sample surface was well within American National Standards Institute (ANSI) safety limits. The transducer was immersed in an acrylic water tank during the imaging process, and the hole at the bottom of the tank was sealed with a piece of […] thick polyethylene film. A thin layer of ultrasonic gel was applied as a PA conductive medium, which was then attached to the thin polyethylene film to ensure reliable coupling of the PA waves with the water tank. The PA signals received by the ultrasonic transducer were pre-amplified by a low-noise amplifier (noise FIG. 1.2 dB, gain 55 dB, AU-3A-0110, USA), cascaded to an ultrasonic receiver (5073 PR, Olympus, USA) and then digitized and sampled by a computer-based 14-bit analog to digital (A/D) card (CompuScope 14220, GaGe, USA) at a 200-MHz sampling rate for data storage.
Fluctuations in the laser energy were monitored with a photodiode (DET36A/M, Thorlabs, USA). The recorded photodiode signals were measured prior to the experiment to compensate for PA signal variations caused by laser-energy instability. The achievable penetration depth of the current PA microscopy system was 3 mm with approximately 18-dB SNR, where SNR is defined as the ratio of the signal peak value to the root-mean-square value of the noise. Three scan types can be provided by this system: A-line (i.e., one-dimensional images where the axis represents the imaging depth), B-scan (i.e., two-dimensional images where one axis is the lateral scanning distance and the other is the imaging depth), and C-scan (i.e., projection images from the three-dimensional images). The amplitude of the envelope-detected PA signals was used in the subsequent functional imaging analysis.
For both in vivo and in vitro imaging, the laser was pulsed with a pulse repetition rate of 10 Hz and coupled by a lens to an optical fiber to illuminate the ROI. A window at the bottom of the water container was sealed with an optically and ultrasonically transparent, disposable polyethylene film. After a commercially available ultrasound gel was applied to the brain for acoustic coupling, the brain was placed between the water container and the custom-made stereotaxic apparatus for imaging.
All the PA images in this study were acquired at 410 nm without any need for signal averaging, and yet the contrast quality of the PA images is high. […]

Water solubility = format: physicochemical
[2] = In vivo PA imaging of rat cortical vasculature (superior sagittal sinus); conditions: 200 μL of 30 μM, retro-orbital injection, 20 min after administration, 410 nm
Text: Cortical vasculature of the rat was in vivo imaged at 32×61 μm resolution, with a designed 50-MHz dark-field confocal PA microscopy system (FIG. 4); the PA signal at λ410 was acquired. The SSS is the largest vein in the rodent brain cortex, and a selected section of it is the region-of-interest (ROI) in this study (FIG. 5B). There is strong clinical evidence that controlling cerebral venous blood flow is critically important for patients with severe traumatic brain injury as well as for patients undergoing cardiac surgery. Then, the SSS is a large central cerebral vein at cortical layer, and collects blood flow from both hemispheres before emptying into the internal jugular vein. That is, accurate measurements of blood flow changes in the SSS are thus very important.
Six male Wistar rats (NUS-CARE, Singapore), weighing 250-300 grams, were used. Animal experiments were conducted in accordance with guidelines from Institutional Animal Care and Use Committee (IACUC) at the National University of Singapore. The rats were fasted for 24 h prior to the imaging experiments, but were given water ad libitum. They were anesthetized with isoflurane (2 to 3% in 100% O2), mounted in a dorsal position over a custom-made acrylic stereotaxic holder, and the skin and muscle on the skull were removed to expose the bregma landmark. […]

[3] = tested on: oral squamous cell carcinoma (OSCC) cells; assay: Cell viability study (MTS / CCK8 cytotoxicity assay); format: cell-based; conditions: 0.01-30 μM, 24 h incubation
Protocol: Five thousand oral squamous cell carcinoma (OSCC) cells were seeded in a 96-well plate for 24 h before a solution of 2 in DMEM ([…]) with the indicated concentrations (0.01-30 μM) was introduced into each well. After incubation for 24 h, 10 μL of CCK8 (cell counting kit-8, Sigma-Aldrich) was added to each well. Cell absorbance was measured with a SpectraMax 384 Plus spectral analyser after 4 h, with 450 nm excitation.

Molecule	PA signal relative to that for single-walled carbon nanotubes (SWNT) [1]	PA signal relative to that for 1a ([1]; water/ethanol (60:40, v/v))	PA signal relative to that for 1b ([1]; water/ethanol (60:40, v/v))	PA signal, rank among the three carbonyl clusters ([1]; water/ethanol (60:40, v/v))	water solubility (Water solubility)	clarity of brain vasculature in PA B-scan image compared to intrinsic optical contrast [2]	concentration down to which PA signal of aqueous solution is adequate ([1]; aqueous solution, B-scan)	effect on viability of cells (cytotoxicity) [3]
[C-]#[O+].[C-]#[O+].[C-]#[O+].[C-]#[O+].[C-]#[O+].[C-]#[O+].[C-]#[O+].[C-]#[O+].[C-]#[O+].[C-]#[O+].[C-]#[O+].[C-]#[O+].[Os].[Os].[Os] [1c, Os3(CO)12]	2.4 times higher	about 1.5 times higher	~1.2 times higher	highest PA signal	low water solubility			
Os3(CO)10(μ-H)μ-S(CH2)2COO^−Na^+ [compound 2]					water-soluble	greater clarity	2.5 µM	little effect on the viability of cells
